Like-named read-outs stand apart in the source and are kept apart here.
What was measured:
[1] = Cytotoxicity assay (cell viability, CellTiter 96 or resazurin); conditions: human, HEK293T cells
[2] = system: VSV pseudotype HIV-like viral particles; experiment: organism not typed; format: cell-based; conditions: for IC50: read-out: HIV IC50
[3] = Solubility observations (aqueous, HSA formulations, growth media); format: physicochemical; conditions: observational, relative to TXL
[4] = Metabolic stability in human liver microsomes; conditions: for HLM t1/2 / HLM stability (in words): human liver microsomes; for HLM t1/2 / half-life at 3 µM: 3 μM prodrug, NADPH, 0-120 min; for microsomal CLint at 3 µM / half-life at 3 µM: human, microsomes; for microsomal CLint at 3 µM: pH 7.4; for half-life at 3 µM: pH 7.4, HLM t1/2, human liver microsomes
in vitro = conditions: human, microsomes, pH 7.4
[5] = dogs, single TAF dose, cited from earlier work
[6] = dogs, single TAF dose
[7] = system: VSV pseudotype HIV-like viral particles; design: method as in Pribut et al., 2021; conditions: preliminary pseudoviral assay results; ref Pribut et al., 2021; cited from earlier work

Structure (SMILES) | IC50 ([2]; HEK-293T, 48 h) [nM] | HLM t1/2 [4] [min] | microsomal CLint at 3 µM [4] [µL/min/mg] | further results
COCCOCCOP(=O)(O)CO[C@H](C)Cn1cnc2c(N)ncnc21.N [Compound 14, Ammonium [(1R)-2-(6-aminopurin-9-yl)-1-methyl-ethoxy]methyl-[2-(2-methoxyethoxy)ethoxy]phosphinate] | 21400 | – | – | CC50 at 48 h [1]: > 100000 nM; IC50 [2]: 19400 nM; aqueous solubility (in words) [3]: observationally increased aqueous solubility
C[C@H](Cn1cnc2c(N)ncnc21)OCP(=O)(O)OCCOCCCCCCCCCCC#Cc1ccc(S(F)(F)(F)(F)F)cc1.N [Compound 40, Ammonium [(1R)-2-(6-aminopurin-9-yl)-1-methyl-ethoxy]methyl-[2-[12-[4-(pentafluorosulfanyl)phenyl]dodec-11-ynoxy]ethoxy]phosphinate] | 14.6 | >120 | < 5.78 | –
C[C@H](Cn1cnc2c(N)ncnc21)OCP(=O)(O)OCCOCCCCCCCCCCCCc1ccc(S(F)(F)(F)(F)F)cc1.N [Compound 42, Ammonium [(1R)-2-(6-aminopurin-9-yl)-1-methyl-ethoxy]methyl-[2-[12-[4-(pentafluorosulfanyl)phenyl]dodecoxy]ethoxy]phosphinate] | 25.4 | >120 | < 5.78 | –
C[C@H](Cn1cnc2c(N)ncnc21)OCP(=O)(O)OCCOCCCCCCCCCCCCCC#CC(F)(F)F.N [Compound 32, Ammonium 2-((16,16,16-trifluorohexadec-14-yn-1-yl)oxy)ethyl (R)-(((1-(6-amino-9h-purin-9-yl)propan-2-yl)oxy)methyl)phosphonate] | 16 | >120 | < 5.78 | –
CCCCCCCCCCCCCCCCCOCCOP(=O)(O)CO[C@H](C)Cn1cnc2c(N)ncnc21.N [Compound 18, Ammonium 2-heptadecoxyethoxy-[[(1R)-2-(6-aminopurin-9-yl)-1-methyl-ethoxy]methyl]phosphinate] | 3 | 35 | 19.8 | half-life at 3 µM [4]: 34.9 min; boost in potency relative to analogue 20 [2]: 17 fold
CCCCCCCCCCCCCCCCCCOCCOP(=O)(O)CO[C@H](C)Cn1cnc2c(N)ncnc21.N [Compound 21, Ammonium 2-octadecoxyethoxy-[[(1R)-2-(6-aminopurin-9-yl)-1-methyl-ethoxy]methyl]phosphinate] | 3 | 105 | 6.6 | HLM stability (in words) [4]: improved stability in HLM
CCCCCCCCCCCCCCCCOCCCOP(=O)(O)CO[C@H](C)Cn1cnc2c(N)ncnc21 [TXL, tenofovir Exalidex, reference compound] | 18 | 41.6 | – | microsomal CLint (in vitro): 16.7 µL/min/mg; half-life at 3 µM [4]: 42 min
COCCOCCOCCOCCOP(=O)(O)CO[C@H](C)Cn1cnc2c(N)ncnc21.N [Compound 13, Ammonium [(1R)-2-(6-aminopurin-9-yl)-1-methyl-ethoxy]methyl-[2-[2-[2-(2-methoxyethoxy)ethoxy]ethoxy]ethoxy]phosphinate] | 26700 | – | – | CC50 at 48 h [1]: > 100000 nM; IC50 [2]: 23400 nM; aqueous solubility (in words) [3]: observationally increased aqueous solubility
C[C@H](Cn1cnc2c(N)ncnc21)OCP(=O)(O)OCCOCCCCCCCCCCCCCCCCC(F)(F)F.N [Compound 37, Ammonium 2-((17,17,17-trifluoroheptadecyl)oxy)ethyl (R)-(((1-(6-amino-9h-purin-9-yl)propan-2-yl)oxy)methyl)phosphonate] | 12.6 | >120 | < 5.78 | –
CCCCCCCCCCCCCCOCCCCCOP(=O)(O)CO[C@H](C)Cn1cnc2c(N)ncnc21.N [Compound 20, Ammonium [(1R)-2-(6-aminopurin-9-yl)-1-methyl-ethoxy]methyl-(5-tetradecoxypentoxy)phosphinate] | 52 | 31 | 22.5 | half-life at 3 µM [4]: 30.9 min
CCCCCCCCOCCCCCOCCCCCOP(=O)(O)CO[C@H](C)Cn1cnc2c(N)ncnc21.N [Compound 11, Ammonium 5-(5-octoxypentoxy)pentoxy-[[(1R)-2-(6-aminopurin-9-yl)-1-methyl-ethoxy]methyl]phosphinate] | 4050 | 12 | 58.6 | HLM stability (in words) [4]: less stable in HLM relative to TXL; half-life at 3 µM [4]: 11.8 min; antiviral activity (in words) [2]: low μM range; decay of antiviral activity with inclusion of the second oxygen atom [2]: 78 fold
C[C@H](Cn1cnc2c(N)ncnc21)OCP(=O)(O)OCCOCCCCCCCCCCCCCCC#CC(F)(F)F.N [Compound 33, Ammonium 2-((17,17,17-trifluoroheptadec-15-yn-1-yl)oxy)ethyl (R)-(((1-(6-amino-9h-purin-9-yl)propan-2-yl)oxy)methyl)phosphonate] | 10.6 | >120 | < 5.78 | –
CC(C)OC(=O)[C@H](C)N[P@](=O)(CO[C@H](C)Cn1cnc2c(N)ncnc21)Oc1ccccc1 [TAF, tenofovir alafenamide] | – | – | – | fraction of dose extracted by the liver ([5]; ref Babusis et al., 2013): 65%; fraction of a single dose converted to plasma TFV ([5]; ref Lee et al., 2005): 17%; fraction of dose remaining available to access HIV-infected cells [6]: 18%; fraction of dose sequestered for toxic side effects [6]: 82%
C[C@H](Cn1cnc2c(N)ncnc21)OCP(=O)(O)OCCOCCCCCCCCCCCCCCCC(F)(F)F.N [Compound 36, Ammonium 2-((16,16,16-trifluorohexadecyl)oxy)ethyl (R)-(((1-(6-amino-9H-purin-9-yl)propan-2-yl)oxy)methyl)phosphonate] | 8.8 | >120 | < 5.78 | –
COCCOCCOCCOCCOCCOCCOP(=O)(O)CO[C@H](C)Cn1cnc2c(N)ncnc21.N [Compound 12, Ammonium 2,5,8,11,14,17-hexaoxanonadecan-19-yl (R)-(((1-(6-amino-9H-purin-9-yl)propan-2-yl)oxy)methyl)phosphonate] | 31200 | – | – | CC50 at 48 h [1]: > 100000 nM; IC50 [2]: 34600 nM; aqueous solubility (in words) [3]: observationally increased aqueous solubility
CCCCOCCCCCOCCCCCOCCCOP(=O)(O)CO[C@H](C)Cn1cnc2c(N)ncnc21.N [Compound 10, Ammonium [(1R)-2-(6-aminopurin-9-yl)-1-methyl-ethoxy]methyl-[3-[5-(5-butoxypentoxy)pentoxy]propoxy]phosphinate] | > 32000 | – | – | antiviral activity (in words) [2]: completely abrogated antiviral activity; loss of antiviral activity [2]: > 1,800 fold
CCCCCCCCCCCCCCCOCCCCOP(=O)(O)CO[C@H](C)Cn1cnc2c(N)ncnc21.N [Compound 19, Ammonium 4-pentadecoxybutoxy-[[(1R)-2-(6-aminopurin-9-yl)-1-methyl-ethoxy]methyl]phosphinate] | 30 | 48 | 14.4 | –
CCCCCCCCCCCCCCCCCCCCOP(=O)(O)COC(C)Cn1cnc2c(N)ncnc21 (centres unmarked) [arachidyl TFV] | – | – | – | IC50 [7]: 127 nM

Source: article PMC9852841, “Expanding the toolbox of metabolically stable lipid prodrug strategies” (Frontiers in Pharmacology, 2023)
